For data set [1], the system named is Rattus norvegicus. The data set is described as follows: Antiinflammatory activity in complete freund's adjuvant-induced IG dosed male Sprague-Dawley rat model of arthritis assessed as decrease in TNF-alpha level in serum after 4 weeks by ELISA. It counts as functional, organism-based. Particulars: dose 40-80 mg/kg. (In general: ELISA stands for enzyme-linked immunosorbent assay.)

The nature of data set [2]: Metabolic stability in rat hepatocytes assessed as intrinsic clearance incubated up to 120 mins measured per million cells by LC-MS/MS analysis. It counts as ADME, cell-based, Hepatocyte. Particulars: read-out: CLH.
Data set [3] can be described thus: Metabolic stability in human hepatocytes assessed as parent compound remaining after 120 mins by LC-MS/MS analysis. It is filed as ADME, cell-based, Hepatocyte. The note with it: read-out: Stabilty.
Data set [4] has as its system RAW264.7. The data set is described as follows: Inhibition of LPS-induced iNOS protein expression in mouse RAW264.7 cells at 0.5 to 2 uM preincubated for 1 hrs followed by LPS-stimulation and measured after 24 hrs by Western blot analysis. It counts as functional, cell-based. Particulars: dose 0.5-2 µM, time 25.0 hrs. On the technique in general: In western blotting, separated proteins are transferred to a membrane and probed.

Data set [5] deals with RAW264.7. Description: Inhibition of LPS-induced NO release in mouse RAW264.7 cells preincubated for 1 hrs followed by LPS stimulation and measured after 24 hrs by Griess reagent based assay. It counts as functional, cell-based.
Data set [6] can be described thus: Volume of distribution at steady state in Sprague-Dawley rat at 1 mg/kg, iv measured after 0.08 to 24 hrs by LC-MS/MS analysis. It counts as ADME, organism-based. Particulars: in vivo, time 0.08-24 hrs, read-out: Vdss.
The nature of data set [7]: Metabolic stability in human hepatocytes assessed as half life measured upto 120 mins by LC-MS/MS analysis. It counts as ADME, cell-based, Hepatocyte.
Data set [8] is described as follows: Cmax in Sprague-Dawley rat at 10 mg/kg, po measured after 0.25 to 24 hrs by LC-MS/MS analysis. Details: route oral, time lower 0.25 hrs, dose 10 mg/kg, time upper 24 hrs. Particulars: in vivo. It is filed as ADME, organism-based.
Data set [9] in a line: Oral bioavailability in Sprague-Dawley rat at 10 mg/kg measured after 0.25 to 24 hrs hrs by LC-MS/MS analysis. It is filed as ADME, organism-based. Particulars: in vivo, time 0.25-24 hrs.
Data set [10] concerns the target T1, Nitric oxide synthase, inducible (Mus musculus) (UniProt P29477).
T1 sequence (whole entry): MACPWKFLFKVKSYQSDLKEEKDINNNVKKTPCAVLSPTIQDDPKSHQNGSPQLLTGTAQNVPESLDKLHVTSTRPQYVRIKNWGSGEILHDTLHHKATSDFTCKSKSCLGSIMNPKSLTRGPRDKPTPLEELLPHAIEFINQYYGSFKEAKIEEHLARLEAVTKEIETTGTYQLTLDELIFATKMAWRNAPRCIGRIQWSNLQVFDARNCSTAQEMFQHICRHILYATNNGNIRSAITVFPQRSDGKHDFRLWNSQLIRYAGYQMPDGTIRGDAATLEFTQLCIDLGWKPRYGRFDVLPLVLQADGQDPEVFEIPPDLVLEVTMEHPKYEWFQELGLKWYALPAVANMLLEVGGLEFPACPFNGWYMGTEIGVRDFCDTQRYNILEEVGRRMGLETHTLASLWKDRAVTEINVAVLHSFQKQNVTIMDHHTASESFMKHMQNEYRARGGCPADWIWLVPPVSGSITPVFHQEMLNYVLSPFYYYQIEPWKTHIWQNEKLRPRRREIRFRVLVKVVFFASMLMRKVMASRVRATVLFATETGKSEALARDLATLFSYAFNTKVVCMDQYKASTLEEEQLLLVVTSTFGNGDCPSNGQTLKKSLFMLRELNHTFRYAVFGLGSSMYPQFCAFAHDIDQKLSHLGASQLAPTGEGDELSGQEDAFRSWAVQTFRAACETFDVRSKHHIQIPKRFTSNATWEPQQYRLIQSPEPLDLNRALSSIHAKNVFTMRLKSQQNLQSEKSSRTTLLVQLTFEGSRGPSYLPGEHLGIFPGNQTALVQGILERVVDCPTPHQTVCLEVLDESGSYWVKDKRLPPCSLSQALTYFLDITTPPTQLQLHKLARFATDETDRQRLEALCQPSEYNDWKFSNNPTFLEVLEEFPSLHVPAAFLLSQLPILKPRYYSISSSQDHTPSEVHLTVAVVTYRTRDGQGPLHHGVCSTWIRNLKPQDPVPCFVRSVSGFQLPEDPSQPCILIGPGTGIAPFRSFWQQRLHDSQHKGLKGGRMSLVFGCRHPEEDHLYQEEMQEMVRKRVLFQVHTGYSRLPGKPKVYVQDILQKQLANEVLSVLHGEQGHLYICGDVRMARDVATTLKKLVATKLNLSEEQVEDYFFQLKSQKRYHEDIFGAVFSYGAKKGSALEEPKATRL
Description: Inhibition of iNOS dimer formation in LPS-induced mouse RAW264.7 cells at 0.5 to 2 uM preincubated for 1 hrs followed by LPS-stimulation and measured after 24 hrs by Westernblot analysis. The note with it: dose 0.5-2 µM, time 25.0 hrs.

A further data set deals with CYP3A4/5 (Homo sapiens, UniProt P08684+P20815). Description: Inhibition of CYP3A4/5 in human liver microsomes using Midazolam as substrate measured after 20 mins by LC-MS/MS analysis. It counts as ADME. The note with it: probe Midazolam. Background: Liver microsomes are vesicles of endoplasmic reticulum, rich in cytochrome P450 enzymes.
Data set [11] in a line: Acute toxicity in rat assessed as weight loss at 2000 mg/kg, IG administered as single dose. It is filed as organism-based. The note with it: in vivo, po.
Data set [12] deals with Rattus norvegicus. The data set is described as follows: Antiinflammatory activity in complete freund's adjuvant-induced male Sprague-Dawley rat model of arthritis assessed as reduction in synovial hyperplasia at 40 to 80 mg/kg, IG after 2 weeks by Safranin O staining based histopathological analysis. It counts as functional, organism-based. The note with it: dose 40-80 mg/kg.

Another data set deals with Cytochrome P450 2C9 (Homo sapiens, UniProt P11712). Description: Inhibition of CYP2C9 in human liver microsomes using Diclofenac as substrate measured after 20 mins by LC-MS/MS analysis. It counts as ADME.
The test system of data set [13] is Rattus norvegicus. Description: Antiinflammatory activity in complete freund's adjuvant-induced male Sprague-Dawley rat model of arthritis assessed as improved cartilage destruction at 80 mg/kg, IG after 4 weeks by H and E staining based histopathological analysis. It counts as functional, organism-based.
The subject of data set [14] is RAW264.7. The data set is described as follows: Cytotoxicity against LPS-induced mouse RAW 264.7 cells assessed as cell viability measured by MTT assay. It is filed as cell-based.
Data set [15] addresses T2, Nitric oxide synthase, inducible (Mus musculus, UniProt P29477).
T2 sequence (P29477 whole entry): T1 sequence (whole entry)
Description: Inhibition of LPS induced NO-dependent iNOS activity in mouse RAW 264.7 cells preincubated for 1 hrs followed by LPS stimulation and measured after 24 hrs by Griess reagent based assay. It is filed as cell-based, RAW264.7.

In another data set the target is Cytochrome P450 2C19 (Homo sapiens, UniProt P33261). Description: Inhibition of CYP2C19 in human liver microsomes using Mephenytoin as substrate measured after 20 mins by LC-MS/MS analysis. It counts as ADME.
Data set [16] in a line: Cmax in Sprague-Dawley rat at 1 mg/kg, iv measured after 0.08 to 24 hrs by LC-MS/MS analysis. It is filed as ADME, organism-based. Details: route intravenous, time upper 24 hrs, dose 1 mg/kg, time lower 0.08 hrs. Particulars: in vivo.
For data set [17], the system named is RAW264.7. The data set is described as follows: Cytotoxicity against mouse RAW264.7 cells at 20 uM measured after 24 hrs. It counts as cell-based. Particulars: raw264.7, 24 h.
Data set [18] deals with Rattus norvegicus. The data set is described as follows: Antiinflammatory activity in complete freund's adjuvant-induced IG dosed male Sprague-Dawley rat model of arthritis assessed as decrease in IL-1beta level in serum after 4 weeks by ELISA. It is filed as functional, organism-based. Particulars: dose 40-80 mg/kg.
Data set [19] in a line: Acute toxicity in rat assessed as drowsiness at 2000 mg/kg, IG administered as single dose. It is filed as organism-based. The note with it: in vivo, po.

Each structure is given as a SMILES string. Activity calls are given as the source filed them. No cut-off for these calls is given here.

Chain of Cytochrome P450 2C9 (P11712 whole entry): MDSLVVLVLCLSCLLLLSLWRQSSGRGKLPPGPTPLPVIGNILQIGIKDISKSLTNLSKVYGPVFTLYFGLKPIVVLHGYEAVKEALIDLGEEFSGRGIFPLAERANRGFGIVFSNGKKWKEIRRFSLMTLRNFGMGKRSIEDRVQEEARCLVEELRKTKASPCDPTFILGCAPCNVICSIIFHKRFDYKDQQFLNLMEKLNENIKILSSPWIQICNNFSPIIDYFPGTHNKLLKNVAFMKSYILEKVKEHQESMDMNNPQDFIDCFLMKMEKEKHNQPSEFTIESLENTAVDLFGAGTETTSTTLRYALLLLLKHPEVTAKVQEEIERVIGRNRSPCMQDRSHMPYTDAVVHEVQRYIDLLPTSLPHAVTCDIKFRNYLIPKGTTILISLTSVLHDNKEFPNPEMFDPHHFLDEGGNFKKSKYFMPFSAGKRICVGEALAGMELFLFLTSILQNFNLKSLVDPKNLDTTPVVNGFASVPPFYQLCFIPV
Chain of Cytochrome P450 2C19 (P33261 whole entry): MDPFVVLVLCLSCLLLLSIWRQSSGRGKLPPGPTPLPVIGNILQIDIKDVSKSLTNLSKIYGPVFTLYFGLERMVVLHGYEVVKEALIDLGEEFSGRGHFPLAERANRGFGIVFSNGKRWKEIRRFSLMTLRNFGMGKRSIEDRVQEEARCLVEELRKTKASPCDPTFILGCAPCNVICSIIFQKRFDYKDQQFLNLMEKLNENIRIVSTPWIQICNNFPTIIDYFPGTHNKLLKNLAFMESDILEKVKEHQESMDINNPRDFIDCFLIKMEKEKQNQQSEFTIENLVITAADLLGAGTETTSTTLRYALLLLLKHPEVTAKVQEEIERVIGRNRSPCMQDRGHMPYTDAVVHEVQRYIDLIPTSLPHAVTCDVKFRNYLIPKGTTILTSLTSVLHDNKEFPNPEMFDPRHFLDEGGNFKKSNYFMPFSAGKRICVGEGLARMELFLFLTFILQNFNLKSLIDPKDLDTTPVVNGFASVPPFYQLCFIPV

For orientation: IC50 means the concentration that gives 50% inhibition. As a reminder, the half-life is the time in which the quantity being followed falls by half. A word on the Cmax: it is the highest concentration seen after dosing. As a reminder, the bioavailability is dose-corrected exposure relative to a reference, in per cent. A higher bioavailability goes with much systemic uptake. For `COc1cc(/C=C/c2nc(NCc3ccc(C)cc3)c3sccc3n2)cc(OC)c1OC`, the Activity result in the data set on Rattus norvegicus [1] was “Dose-Dependent Effect”; in data set [11] it was “Non-Toxic”; in the data set on RAW264.7 [17], “Non-Toxic”; in the data set on Rattus norvegicus [18], “Dose-Dependent Effect”; in data set [19], “Non-Toxic”. Further, in data set [2], the hepatocyte CLint is 12.6 µL/min/1e6 cells. Besides, the remaining at 2 h in data set [3] is 77.5%. In addition, the inhibition entry in the data set on RAW264.7 [4] was “inactive”. For the same compound, the half-inhibitory concentration (IC50) is 1.86 µM in the data set on RAW264.7 [5]; 8.91 µM against Cytochrome P450 2C9; over 50 µM in the data set on RAW264.7 [14]; 0.96 µM in [15]; 7.76 µM at Cytochrome P450 2C19. Also, the Vd in data set [6] is 11.3 L/kg. In data set [7], the half-life turned out to be 5.44 h. The Cmax came out at 131 ng/mL in [8] and 388 ng/mL in data set [16]. The bioavailability in data set [9] turned out to be 29.9%. In addition, the inhibition entry in data set [10] is “Active”. Besides, on CYP3A4/5, the IC50 at 20 min was over 50 µM. The outcome with Rattus norvegicus [12] and in the data set with Rattus norvegicus [13] was Active.

For the origin of these results see ChEMBL document CHEMBL4813945, “Discovery and development of novel pyrimidine and pyrazolo/thieno-fused pyrimidine derivatives as potent and orally active inducible nitric oxide synthase dimerization inhibitor with efficacy for arthritis” (Eur J Med Chem, 2021).
